# Non-standard residues stand in square brackets, D forms with d. Residues, ends and D or L forms follow the SMILES beside them. ξ: configuration not given here. *: point of attachment. Phe(F5) = N[C@@H](Cc1c(F)c(F)c(F)c(F)c1F)C(=O)O; Desaminotyrosyl = O=C(CCc1ccc(O)cc1)*; NMeY = CN[C@@H](Cc1ccc(O)cc1)C(=O)O; Agmatine = N=C(N)NCCCCN*; NMeA = CN[C@@H](C)C(=O)O; Nle = CCCC[C@H](N)C(=O)O; Orn = NCCC[C@H](N)C(=O)O; Abu = CC[C@H](N)C(=O)O; Ava = NCCCCC(=O)O; GABA = NCCCC(=O)O; ξA = CC(N)C(=O)O
# Assays:
# GH release = test: In vivo endocrine activity, GH release after subcutaneous administration (Table 9); settings: rat; for GH releasing potency relative to JI-38 (=1): subcutaneous (s.c.) injection
# Description: Subcutaneous Administration. Adult male rats were used and anesthetized with pentobarbital (6 mg/100 g, b.w.), by i.p. injection. […] Blood samples were taken from the jugular vein 5, 15 and/or 30 minutes after the injection. The blood samples were centrifuged, plasma was removed and the GH level was measured byELISA. The results are summarized in terms of potency in Table 9.
# GHRH receptor = target: T1, GHRH receptor (Homo sapiens, UniProt Q02643); test: GHRH receptor binding, competition with 125I-labeled JV-1-42, human pituitary membrane homogenates (Table 7); parameters: Normal human pituitaries were purchased from the National Hormone and Peptide Program; tissue National Hormone and Peptide Program (A.F. Parlow, Harbor-UCLA Medical Center, Torrance, Calif.); host or cells: normal human pituitary, membrane fraction; settings: for Relative affinity (Binding potency) vs JI-38: JI-38 = 1, Table 7
# T1 sequence (Q02643 23-423): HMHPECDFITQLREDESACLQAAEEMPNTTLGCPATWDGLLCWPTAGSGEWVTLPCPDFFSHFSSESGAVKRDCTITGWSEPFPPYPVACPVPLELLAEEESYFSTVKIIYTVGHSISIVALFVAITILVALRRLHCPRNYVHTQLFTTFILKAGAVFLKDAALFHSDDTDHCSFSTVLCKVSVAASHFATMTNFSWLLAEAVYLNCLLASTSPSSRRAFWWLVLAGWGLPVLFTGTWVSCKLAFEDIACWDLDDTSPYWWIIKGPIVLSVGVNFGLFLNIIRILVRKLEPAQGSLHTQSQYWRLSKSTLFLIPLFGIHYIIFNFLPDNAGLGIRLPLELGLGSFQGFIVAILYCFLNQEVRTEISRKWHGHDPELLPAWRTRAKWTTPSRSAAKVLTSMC
# From the text: Normal human pituitaries were purchased from the National Hormone and Peptide Program (A.F. Parlow, Los Angeles, County Harbor-UCLA Medical Center, Torrance, Calif.).
Compound,GH releasing potency relative to JI-38 (=1) (GH release; 5 min after),GH releasing potency relative to JI-38 (=1) (GH release; 15 min after),GH releasing potency relative to JI-38 (=1) (GH release; 30 min after),"IC50 (GHRH receptor; 125I-JV-1-42, human pituitary membranes, Table 7) [nM]",Relative affinity (Binding potency) vs JI-38 (GHRH receptor),Stimulation of growth hormone levels after subcutaneous administration (in words) (GH release; s.c.)
"CCCC[C@H](NC(=O)[C@@H](NC(=O)[C@H](CC(=O)O)NC(=O)[C@H](CCC(N)=O)NC(=O)[C@H](CC(C)C)NC(=O)[C@H](CC(C)C)NC(=O)[C@H](CCCN)NC(=O)[C@H](CCCNC(=N)N)NC(=O)[C@H](C)NC(=O)[C@H](CO)NC(=O)[C@H](CC(C)C)NC(=O)[C@H](CCC(N)=O)NC(=O)[C@H](CC)NC(=O)[C@H](CC(C)C)NC(=O)[C@@H](NC(=O)[C@H](CCCN)NC(=O)[C@H](CCCNC(=N)N)NC(=O)[C@H](Cc1ccc(O)cc1)NC(=O)[C@H](CO)NC(=O)[C@H](C)N(C)C(=O)[C@@H](NC(=O)[C@H](Cc1ccccc1)NC(=O)[C@@H](NC(=O)[C@H](C)NC(=O)[C@H](CC(=O)O)NC(=O)[C@@H](C)NC(=O)CCc1ccc(O)cc1)[C@@H](C)CC)[C@@H](C)O)C(C)C)[C@@H](C)CC)C(=O)N[C@@H](CC(=O)O)C(=O)NCCCCNC(=N)N [Peptide P-20357, [Dat^1, D-Ala^2, N—Me-Ala^8, Orn^12, Abu^15, Orn^21, Nle^27, Asp^28, Agm^29]hGHRH (1-29)NH2] (Desaminotyrosyl-[dA]DAIFT[NMeA]SYR[Orn]VL[Abu]QLSAR[Orn]LLQDI[Nle]D-Agmatine)",0.63,1.07,1.41,0.86,5.06,–
"CCCC[C@H](NC(=O)[C@@H](NC(=O)[C@H](CC(=O)O)NC(=O)[C@H](CCC(N)=O)NC(=O)[C@H](CC(C)C)NC(=O)[C@H](CC(C)C)NC(=O)[C@H](CCCN)NC(=O)[C@H](CCCNC(=N)N)NC(=O)[C@H](C)NC(=O)[C@H](CO)NC(=O)[C@H](CC(C)C)NC(=O)[C@H](CCC(N)=O)NC(=O)[C@H](CC)NC(=O)[C@H](CC(C)C)NC(=O)[C@@H](NC(=O)[C@H](CCCN)NC(=O)[C@H](CCCNC(=N)N)NC(=O)[C@H](Cc1ccc(O)cc1)NC(=O)[C@H](CO)NC(=O)[C@H](CC(N)=O)NC(=O)[C@@H](NC(=O)[C@H](Cc1c(F)c(F)c(F)c(F)c1F)NC(=O)[C@@H](NC(=O)[C@H](C)NC(=O)[C@H](CC(=O)O)NC(=O)[C@@H](C)NC(=O)[C@H](Cc1ccc(O)cc1)NC)[C@@H](C)CC)[C@@H](C)O)C(C)C)[C@@H](C)CC)C(=O)N[C@@H](CC(=O)O)C(=O)NCCCCNC(=N)N [Peptide P-20359, [N—Me-Tyr^1, D-Ala^2, Fpa5^6, Orn^12, Abu^15, Orn^21, Nle^27, Asp^28, Agm^29]hGHRH (1-29)NH2] (H-[NMeY][dA]DAI[Phe(F5)]TNSYR[Orn]VL[Abu]QLSAR[Orn]LLQDI[Nle]D-Agmatine)",–,–,–,–,1.43,–
"CCCC[C@H](NC(=O)[C@@H](NC(=O)[C@H](CC(=O)O)NC(=O)[C@H](CCC(N)=O)NC(=O)[C@H](CC(C)C)NC(=O)[C@H](CC(C)C)NC(=O)[C@H](CCCN)NC(=O)[C@H](CCCNC(=N)N)NC(=O)[C@H](C)NC(=O)[C@H](CO)NC(=O)[C@H](CC(C)C)NC(=O)[C@H](CCC(N)=O)NC(=O)[C@H](CC)NC(=O)[C@H](CC(C)C)NC(=O)[C@@H](NC(=O)[C@H](CCCN)NC(=O)[C@H](CCCNC(=N)N)NC(=O)[C@H](Cc1ccc(O)cc1)NC(=O)[C@H](CO)NC(=O)[C@H](CCC(N)=O)NC(=O)[C@@H](NC(=O)[C@H](Cc1ccccc1)NC(=O)[C@@H](NC(=O)[C@H](C)NC(=O)[C@H](CC(=O)O)NC(=O)C(C)NC(=O)[C@H](Cc1ccc(O)cc1)NC)[C@@H](C)CC)[C@@H](C)O)C(C)C)[C@@H](C)CC)C(=O)N[C@@H](CC(=O)O)C(=O)N[C@@H](CCCNC(=N)N)C(=O)NCCCCC(N)=O (some centres unmarked) [Peptide P-22325, [N—Me-Tyr^1, Gln^8, Orn^12, Abu^15, Orn^21, Nle^27, Asp^28, Apa^30]hGHRH (1-30)NH2] (H-[NMeY][ξA]DAIFTQSYR[Orn]VL[Abu]QLSAR[Orn]LLQDI[Nle]DR[Ava]-NH2)",0.33,0.68,1.03,–,1.14,–
"CCCC[C@H](NC(=O)[C@@H](NC(=O)[C@H](CC(=O)O)NC(=O)[C@H](CCC(N)=O)NC(=O)[C@H](CC(C)C)NC(=O)[C@H](CC(C)C)NC(=O)[C@H](CCCN)NC(=O)[C@H](CCCNC(=N)N)NC(=O)[C@H](C)NC(=O)[C@H](CO)NC(=O)[C@H](CC(C)C)NC(=O)[C@H](CCC(N)=O)NC(=O)[C@H](CC)NC(=O)[C@H](CC(C)C)NC(=O)[C@@H](NC(=O)[C@H](CCCN)NC(=O)[C@H](CCCNC(=N)N)NC(=O)[C@H](Cc1ccc(O)cc1)NC(=O)[C@H](CO)NC(=O)[C@H](CC(N)=O)NC(=O)[C@@H](NC(=O)[C@H](Cc1ccccc1)NC(=O)[C@@H](NC(=O)[C@H](C)NC(=O)[C@H](CC(=O)O)NC(=O)[C@@H](C)NC(=O)[C@H](Cc1ccc(O)cc1)NC)[C@@H](C)CC)[C@@H](C)O)C(C)C)[C@@H](C)CC)C(=O)N[C@@H](CO)C(=O)N[C@@H](CCCNC(=N)N)C(=O)NCCCC(N)=O [Peptide P-25501, [N—Me-Tyr^1, D-Ala^2, Orn^12, Abu^15, Orn^21, Nle^27, Gab^30]hGHRH(1-30)NH2] (H-[NMeY][dA]DAIFTNSYR[Orn]VL[Abu]QLSAR[Orn]LLQDI[Nle]SR[GABA]-NH2)",1.40,1.36,1.63,–,4.07,stimulated greater growth hormone levels than hGHRH or JI-38
"[N—Me-D-Tyr^1, D-Ala^2, Gln^8, Orn^12, Abu^15, Orn^21, Nle^27, Asp^28]hGHRH(1-29)NH—CH3 [Peptide P-27425]",–,0.49,0.31,–,–,–
"[N—Me-Tyr^1, D-Ala^2, Ala^8, Orn^12, Abu^15, Orn^21, Nle^27, Asp^28]hGHRH (1-29)NH—CH3 [Peptide P-27412]",–,1.10,1.29,–,–,–
"[N—Me-Tyr^1, D-Ala^2, Gln^8, Orn^12, Abu^15, Orn^21, Nle^27, Asp^28, Gln-Gab^30] hGHRH](1-30)NH2 [Peptide P-29701]",0.92,1.30,1.55,–,–,–
"[N—Me-Tyr^1, D-Ala^2, Thr^8, Orn^12, Abu^15, Orn^21, Nle^27, Asp^28, Agm^29] hGHRH (1-29)NH2 [Peptide P-20360]",–,0.24,0.39,–,–,–
"[N—Me-Tyr^1, Gln^8, Orn^12, Abu^15, Orn^21, Nle^27, Agm^29]hGHRH(1-29)NH2 [Peptide P-20373]",–,0.23,0.88,–,–,–

# From patent publication US10555987B2, “GHRH agonists for the treatment of ischemic disorders” (UNIVERSITY OF MIAMI, priority 2012, dated 2020)
